# Values quoted from earlier work in patent US20110002851A1, “Cationic Colloidal Carriers for Delivery of Active Agents to the Blood-Brain Barrier in the Course of Neuroinflammatory Diseases” (MediGene AG, priority 2006, published 2011).
# Assays:
# T cell = settings: micellar paclitaxel formulation
# MMP-9 = settings: LPS-stimulated astrocytes and microglia
smiles,measurement,setting,value
CC(=O)O[C@H]1C(=O)[C@@]2(C)[C@H]([C@H](OC(=O)c3ccccc3)[C@]3(O)C[C@H](OC(=O)[C@H](O)[C@@H](NC(=O)c4ccccc4)c4ccccc4)C(C)=C1C3(C)C)[C@]1(OC(C)=O)CO[C@@H]1C[C@@H]2O (racemic) [paclitaxel],T cell proliferation,T cell,dose-dependent suppression
"CC(C)(C)NC(=O)[C@@H]1CN(Cc2cccnc2)CCN1C[C@@H](O)C[C@@H](Cc1ccccc1)C(=O)N[C@H]1c2ccccc2C[C@H]1O [IDV, indinavir]",expression of MMP-9,MMP-9,dose-dependently inhibited
"Cc1cn([C@H]2C[C@H](N=[N+]=[N-])[C@@H](CO)O2)c(=O)[nH]c1=O [AZT, zidovudine]",expression of MMP-9,MMP-9,dose-dependently inhibited
